According to patent publication US11198713B2, “Agents modulating beta-catenin functions and methods thereof” (FOG PHARMACEUTICALS, INC., priority 2017, dated 2021):
Numbered stars: 1 amine (or outer) side, 2 acyl side, 3 side chain; on linkers, the order of the positions; unused ones are H or OH. Bridge positions count the residues as written; N and C are the ends. Square brackets hold non-standard residues; d marks the D form. Peptide text beside a SMILES is read from it. dαMeDap(Me) = CN(C[C@@](C)(N[*:1])C(=O)[*:2])[*:3]; αMeDab(Me) = CN(CC[C@](C)(N[*:1])C(=O)[*:2])[*:3]; X2 = O=C(OCC=CCOC(=O)[*:2])[*:1]

What follows are compounds tested against T1, full-length beta-catenin (Axin site) (Homo sapiens, UniProt P35222) (assay: Competition fluorescence polarization assay (Axin site probe)). Conditions: competition fluorescence polarization, Table 2; read-out: in vitro FP EC50.
T1 construct: 15 nM full-length beta-catenin, 20 nM FITC labeled peptide in buffer
T1 sequence (P35222 1-781): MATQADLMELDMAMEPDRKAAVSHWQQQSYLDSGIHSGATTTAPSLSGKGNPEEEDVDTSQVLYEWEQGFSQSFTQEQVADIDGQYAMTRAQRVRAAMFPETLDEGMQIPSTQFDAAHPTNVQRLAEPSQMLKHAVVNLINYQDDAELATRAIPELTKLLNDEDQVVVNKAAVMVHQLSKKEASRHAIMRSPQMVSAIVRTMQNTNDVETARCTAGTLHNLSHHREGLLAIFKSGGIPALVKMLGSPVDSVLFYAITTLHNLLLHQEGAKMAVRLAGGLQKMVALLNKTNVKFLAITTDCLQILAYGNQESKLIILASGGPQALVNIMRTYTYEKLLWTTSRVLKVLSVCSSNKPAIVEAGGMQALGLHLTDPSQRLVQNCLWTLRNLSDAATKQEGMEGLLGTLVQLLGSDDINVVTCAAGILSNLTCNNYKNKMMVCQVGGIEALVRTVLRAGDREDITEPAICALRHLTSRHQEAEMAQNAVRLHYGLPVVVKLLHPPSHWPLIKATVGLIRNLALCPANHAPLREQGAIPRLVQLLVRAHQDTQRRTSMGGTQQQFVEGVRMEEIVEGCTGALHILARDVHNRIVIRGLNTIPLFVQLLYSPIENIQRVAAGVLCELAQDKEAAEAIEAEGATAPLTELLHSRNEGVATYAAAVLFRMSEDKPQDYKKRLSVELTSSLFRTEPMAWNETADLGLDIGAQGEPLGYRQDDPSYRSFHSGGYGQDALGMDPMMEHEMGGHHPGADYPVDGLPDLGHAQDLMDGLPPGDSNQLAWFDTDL
Assay type: binding
Summary of the method: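 Competition FP: 15 nM full-length β-catenin pre-incubated 5 min with 20 nM FITC-labelled stapled Axin-site peptide, then titrated peptide added (3-fold series from 5 μM) for 15 min in the dark. Buffer 50 mM Tris pH 8.0, 250 mM NaCl, 2% glycerol, 0.5 mM EDTA; duplicate reads.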

CC[C@H](C)[C@@H]1NC(=O)[C@H](Cc2ccccn2)NC(=O)[C@H](C)NC(=O)[C@H](CC(=O)O)NC(=O)[C@H](CC(C)C)NC(=O)[C@H]([C@@H](C)CC)NC(=O)[C@](C)(NC(=O)[C@H](C)NC(C)=O)CCCCCCC=CCOC(=O)N2CC[C@@](C(=O)N[C@@H](Cc3ccccn3)C(=O)N[C@H](C(=O)N[C@@H](Cc3c[nH]c4ccccc34)C(N)=O)C(C)C)(C2)NC1=O (single isomer, unassigned) [FP0572c Isomer 1, Ac-A-R8-I-L-D-A-2pyr-I-MB-2pyr-V-W-NH2] and CC[C@H](C)[C@@H]1NC(=O)[C@H](Cc2ccccn2)NC(=O)[C@H](C)NC(=O)[C@H](CC(=O)O)NC(=O)[C@H](CC(C)C)NC(=O)[C@H]([C@@H](C)CC)NC(=O)[C@](C)(NC(=O)[C@H](C)NC(C)=O)CCCCCCC=CCOC(=O)N2CC[C@@](C(=O)N[C@@H](CO)C(=O)N[C@H](C(=O)N[C@@H](Cc3c[nH]c4ccccc34)C(N)=O)C(C)C)(C2)NC1=O (single isomer, unassigned) [FP0560c Isomer 1, Ac-A-R8-I-L-D-A-2pyr-I-MB-S-V-W-NH2] cannot be ordered by EC50: over 5 µM for the first, over 5 µM for the second.

CC[C@H](C)[C@@H]1NC(=O)[C@H](Cc2c[nH]cn2)NC(=O)[C@H](C)NC(=O)[C@H](CCS(C)(=O)=O)NC(=O)[C@H](CC(C)C)NC(=O)[C@H]([C@@H](C)CC)NC(=O)[C@](C)(NC(=O)[C@H](C)NC(C)=O)CCCCCCC=CCOC(=O)N2CC[C@@](C(=O)N[C@@H](CCCNC(=N)N)C(=O)N[C@H](C(=O)N[C@@H](Cc3c[nH]c4ccccc34)C(N)=O)C(C)C)(C2)NC1=O [FP0629c, Ac-A-R8-I-L-M2O-A-H-I-MB-R-V-W-NH2] and CC[C@H](C)[C@@H]1NC(=O)[C@H](Cc2c[nH]cn2)NC(=O)[C@H](C)NC(=O)[C@H](C)NC(=O)[C@H](CC(C)C)NC(=O)[C@H]([C@@H](C)CC)NC(=O)[C@](C)(NC(=O)[C@H](C)NC(C)=O)CCCCCCC=CCOC(=O)N2CC[C@@](C(=O)N[C@@H](CCCNC(=N)N)C(=O)N[C@H](C(=O)N[C@@H](Cc3c[nH]c4ccccc34)C(N)=O)C(C)C)(C2)NC1=O [FP0407c, Ac-A-R8-I-L-A-A-H-I-MB-R-V-W-NH2] fall in the same range of EC50: 0.5 to 5 µM for the first, 0.5 to 5 µM for the second.

First: CC[C@H](C)[C@@H]1NC(=O)[C@H](Cc2c[nH]cn2)NC(=O)[C@H](C)NC(=O)[C@H](CC(=O)O)NC(=O)[C@H](CC(C)C)NC(=O)[C@H]([C@@H](C)CC)NC(=O)[C@](C)(NC(=O)[C@H](C)NC(C)=O)CCCCCCC=CCOC(=O)N2CC[C@@](C(=O)N[C@@H](Cc3cccc4ccccc34)C(=O)N[C@H](C(=O)N[C@@H](Cc3c[nH]c4ccccc34)C(N)=O)C(C)C)(C2)NC1=O (single isomer, unassigned) [FP0365c Isomer 1, Ac-A-R8-I-L-D-A-H-I-MB-1NapA-V-W-NH2]
Second: CC[C@H](C)[C@@H]1NC(=O)[C@H](Cc2ccccn2)NC(=O)[C@H](C)NC(=O)[C@H](CC(=O)O)NC(=O)[C@H](CC(C)C)NC(=O)[C@H]([C@@H](C)CC)NC(=O)[C@](C)(NC(=O)[C@H](C)NC(C)=O)CCCCCCC=CCOC(=O)N2CC[C@@](C(=O)N[C@@H](Cc3ccc(C)cc3)C(=O)N[C@H](C(=O)N[C@@H](Cc3c[nH]c4ccccc34)C(N)=O)C(C)C)(C2)NC1=O (single isomer, unassigned) [FP0578c Isomer 1, Ac-A-R8-I-L-D-A-2pyr-I-MB-4MeF-V-W-NH2]
The EC50 of the first is lower: 0.5 to 5 µM for the first, over 5 µM for the second. The first is the more potent here.

First: CC[C@H](C)[C@@H]1NC(=O)[C@@](C)(NC(=O)[C@H](CCC(N)=O)NC(=O)[C@@H]2CCCN2C(C)=O)CCCC=CCOC(=O)N2CC(C(=O)N[C@@H](Cc3c[nH]cn3)C(=O)N[C@H](C(=O)N[C@@H](CCCNC(=N)N)C(=O)N[C@@H](CCCNC(=N)N)C(=O)N[C@H](C(=O)N[C@@H](Cc3c[nH]c4ccccc34)C(=O)N[C@@H](CCCNC(=N)N)C(N)=O)C(C)C)C(C)C)(C2)NC(=O)[C@H](CC(=O)O)NC(=O)[C@H](CC(C)C)NC1=O (single isomer, unassigned) [FP0734c, Ac-P-Q-S5-I-L-D-MA-H-V-R-R-V-W-R-NH2]
Second: CC[C@H](C)[C@@H]1NC(=O)[C@](C)(NC(=O)[C@H](CCC(N)=O)NC(=O)[C@@H]2CCCN2C(C)=O)CCCC=CCOC(=O)N2CC(C(=O)N[C@@H](Cc3c[nH]cn3)C(=O)N[C@H](C(=O)N[C@@H](CCCNC(=N)N)C(=O)N[C@@H](CCCNC(=N)N)C(=O)N[C@H](C(=O)N[C@@H](Cc3c[nH]c4ccccc34)C(=O)N[C@@H](CCCNC(=N)N)C(N)=O)C(C)C)C(C)C)(C2)NC(=O)[C@H](CC(=O)O)NC(=O)[C@H](CC(C)C)NC1=O (single isomer, unassigned) [FP0733c, Ac-P-Q-R5-I-L-D-MA-H-V-R-R-V-W-R-NH2]
The EC50 of the first is higher: over 5 µM for the first, 0.5 to 5 µM for the second. The second is the more potent here.

Compared with CC[C@H](C)[C@@H]1NC(=O)[C@]2(NC(=O)[C@H](CCC(N)=O)NC(=O)[C@@H]3CCCN3C(C)=O)CCN(CC=CCCCCC[C@@](C)(C(=O)N[C@@H](Cc3c[nH]cn3)C(=O)N[C@H](C(=O)N[C@@H](CCCNC(=N)N)C(=O)N[C@@H](CCCNC(=N)N)C(=O)N[C@H](C(=O)N[C@@H](Cc3c[nH]c4ccccc34)C(=O)N[C@@H](CCCNC(=N)N)C(N)=O)C(C)C)C(C)C)NC(=O)[C@H](CC(=O)O)NC(=O)[C@H](CC(C)C)NC1=O)C2 (single isomer, unassigned) [FP0753a, Ac-P-Q-MB-I-L-D-S7-H-V-R-R-V-W-R-NH2], CC[C@H](C)[C@@H]1NC(=O)[C@](C)(NC(=O)[C@H](CCC(N)=O)NC(=O)[C@@H]2CCCN2C(C)=O)CCCC=CCOC(=O)N(C)CCC[C@](C)(C(=O)N[C@@H](Cc2c[nH]cn2)C(=O)N[C@H](C(=O)N[C@@H](CCCNC(=N)N)C(=O)N[C@@H](CCCNC(=N)N)C(=O)N[C@H](C(=O)N[C@@H](Cc2c[nH]c3ccccc23)C(=O)N[C@@H](CCCNC(=N)N)C(N)=O)C(C)C)C(C)C)NC(=O)[C@H](CC(=O)O)NC(=O)[C@H](CC(C)C)NC1=O (single isomer, unassigned) [FP0777c, Ac-P-Q-R5-I-L-D-MI-H-V-R-R-V-W-R-NH2] is lower in EC50: over 5 µM for the first, 0.5 to 5 µM for the second.

Compared with CC[C@H](C)[C@@H]1NC(=O)[C@H](Cc2ccccn2)NC(=O)[C@H](C)NC(=O)[C@H](CC(=O)O)NC(=O)[C@H](CC(C)C)NC(=O)[C@H]([C@@H](C)CC)NC(=O)[C@](C)(NC(=O)[C@H](C)NC(C)=O)CCCCCCC=CCOC(=O)N2CC[C@@](C(=O)N[C@H](C(=O)N[C@H](C(=O)N[C@@H](Cc3c[nH]c4ccccc34)C(N)=O)C(C)C)[C@@H](C)O)(C2)NC1=O (single isomer, unassigned) [FP0561c Isomer 1, Ac-A-R8-I-L-D-A-2pyr-I-MB-T-V-W-NH2], CC[C@H](C)[C@@H]1NC(=O)[C@H](Cc2ccncc2)NC(=O)[C@H](C)NC(=O)[C@H](CC(=O)O)NC(=O)[C@H](CC(C)C)NC(=O)[C@H]([C@@H](C)CC)NC(=O)[C@](C)(NC(=O)[C@H](C)NC(C)=O)CCCCCCC=CCOC(=O)N2CC[C@@](C(=O)N[C@@H](CCCNC(=N)N)C(=O)N[C@H](C(=O)N[C@@H](Cc3c[nH]c4ccccc34)C(N)=O)C(C)C)(C2)NC1=O [FP0538c, Ac-A-R8-I-L-D-A-4pyr-I-MB-R-V-W-NH2] is lower in EC50: over 5 µM for the first, 0.5 to 5 µM for the second.

CC[C@H](C)[C@@H]1NC(=O)[C@H](Cc2c[nH]cn2)NC(=O)[C@H](C)NC(=O)[C@H]([C@@H](C)O)NC(=O)[C@H](CC(C)C)NC(=O)[C@H]([C@@H](C)CC)NC(=O)[C@](C)(NC(=O)[C@H](C)NC(C)=O)CCCCCCC=CCOC(=O)N2CC[C@@](C(=O)N[C@@H](CCCNC(=N)N)C(=O)N[C@H](C(=O)N[C@@H](Cc3c[nH]c4ccccc34)C(N)=O)C(C)C)(C2)NC1=O [FP0219c, Ac-A-R8-I-L-T-A-H-I-MB-R-V-W-NH2] and CC[C@H](C)[C@@H]1NC(=O)[C@H](Cc2c[nH]cn2)NC(=O)[C@H](C)NC(=O)[C@H](CC(=O)O)NC(=O)[C@H](CC(C)C)NC(=O)[C@H]([C@@H](C)CC)NC(=O)[C@](C)(NC(=O)[C@H](C)NC(C)=O)CCCCCC=CCN2CC(C(=O)N[C@@H](CCCNC(=N)N)C(=O)N[C@H](C(=O)N[C@@H](Cc3c[nH]c4ccccc34)C(N)=O)C(C)C)(C2)NC1=O (single isomer, unassigned) [FP0516a Isomer 1, Ac-A-R7-I-L-D-A-H-I-MA-R-V-W-NH2] fall in the same range of EC50: 0.1 to 0.5 µM for the first, 0.1 to 0.5 µM for the second.

Compound CC[C@H](C)[C@@H]1NC(=O)[C@H](Cc2c[nH]cn2)NC(=O)[C@H](C)NC(=O)[C@H](CC(=O)O)NC(=O)[C@H](CC(C)C)NC(=O)[C@H]([C@@H](C)CC)NC(=O)[C@](C)(NC(=O)[C@H](C)NC(C)=O)CN(C)C(=O)OCC=CCOC(=O)N(C)CC[C@@](C)(C(=O)N[C@@H](CCCNC(=N)N)C(=O)N[C@H](C(=O)N[C@@H](Cc2c[nH]c3ccccc23)C(N)=O)C(C)C)NC1=O [FP0601c, Ac-A-ME-I-L-D-A-H-I-MF-R-V-W-NH2] (Ac-A[dαMeDap(Me)]ILDAHI[αMeDab(Me)]RVW-NH2; linker 2-9 via X2) has an EC50 of under 0.1 µM.
